From US20090275562A1 (Cypress Biosciences, Inc., priority 2008, published 2009)

Key:
[1] = controlled studies, cited from earlier work
[2] = test system: 5-HT and NA reuptake sites; conditions: from U.S. Pat. No. 6,642,235; cited from earlier work
[3] = Example 1A clinical study, 6-week weight gain/loss with mirtazapine and reboxetine; assay type: in vivo, human; conditions: for Mean Change from Baseline (weight): Week 6, 4 mg reboxetine morning, 15 mg mirtazapine evening, female volunteers; for mean change in body mass over the course of the study, in words (FIGS. 1-4): completers with fasted body mass at baseline and end of week 6; for 6-week weight gain (or loss), in words: versus placebo, 6 weeks of therapy
Description: All medications were administered in an over-encapsulated format that ensures blinding of study participants, staff and investigators. All subjects received a total of 6 weeks of therapy. Vital signs and weight assessments were made at clinic visits at the beginning and end of the study and at various times during the study. Patient outcomes of sleep quality and propensity were evaluated using the Karolinska Sleepiness Scale (KSS) and the Epworth Sleepiness Scale (ESS). Standard safety review was also conducted for each of the subjects, including recordation of any adverse events.
Sensitivity analysis was performed for completers and for intention-to-treat, last observation carried forward ([…]).

[4] = Example 1 tolerability study of mirtazapine and reboxetine in healthy subjects; assay type: in vivo, human; conditions: 6 weeks; 15 mg mirtazapine evening, 2 or 4 mg reboxetine morning; present-tense example
Description: (§1) The subjects receive 2 capsules per day, one in the morning and one at bedtime. […] All medications are administered in an over-encapsulated format that ensures blinding of study participants, staff and investigators. All subjects are scheduled to receive a total of 6 weeks of therapy, and are required to return to the clinics after 1, 2, 4 and 6 weeks of therapy. Patients are required to complete paper self-assessments, electronic diary assessments, computer based cognitive testing, as well as vital signs and weight assessments at the clinic visits.

[5] = Example 4 tolerability study of mirtazapine and betahistine in healthy subjects; assay type: in vivo, human; conditions: 6 weeks; 15 mg mirtazapine evening, 8 or 16 mg betahistine morning; present-tense example
Description: as §1

[6] = Completers and MF (morning fasting) weight

Compound	weight gain of greater than or equal to 7% of body weight, share of patients ([1]; placebo 0%)	appetite increase reported, share of patients ([1]; placebo 2%)	norepinephrine reuptake inhibitor selectivity (Ki5HT/KiNA) [2]	Mean Change from Baseline (weight) [3, 6]	Mean Change from Baseline (weight) ([3]; Completers and NMF weight)	Mean Change from Baseline (weight) ([3]; ITT-LOCF & NMF weight)	Mean Change from Baseline (weight) ([3]; ITT-LOCF and MF weight)	mean change in body mass over the course of the study, in words (FIGS. 1-4) [3]	6-week weight gain (or loss), in words [3]	side effects caused, in words [4]	side effects caused, in words [5]	increase in body weight / weight gain ([3]; 6 weeks, text summary of the tables (values of Table 1A-1, mean ± standard error))
CN(C)CCC=C1c2ccccc2CCc2ccccc21 [amitriptyline]	5.9%	6%										
(S,S)reboxetine			about 12,700									
CCOc1ccccc1OC(c1ccccc1)C1CNCCO1 (racemic) [reboxetine, 2-[(2-ethoxyphenoxy)-phenyl-methyl]morpholine]			about 80	-1.61 kg	-1.7 kg	-1.693 kg	-1.685 kg	decrease in body mass	weight loss as compared to placebo-only	insomnia, nausea/vomiting, and weight loss	insomnia, nausea/vomiting, and weight loss	
CN1CCN2c3ncccc3Cc3ccccc3C2C1 (stereo not drawn) [mirtazapine, 1,2,3,4,10,14b-hexahydro-2-methylpyrazino[2,1-a]pyrido[2,3-c]benzazepine]				2.215 kg	1.943 kg	1.8 kg	2.043 kg	marked increase in body mass	significantly greater weight gain	weight gain, sedation, and cognitive deficits	weight gain, sedation, and cognitive deficits	2.215 ± 0.385 kg
